Measurements: patent publication US6566580B1, “Neurological disease model” (priority 1996, dated 2003)
Values joined by “and” are separate entries in the source; they are usually repeats but may differ in a detail not shown here. Identical values can stand only once.

What was measured:
mGlu7 = mGlu7 (Rattus norvegicus, UniProt P35400); details: high concentrations of L-AP4, e.g. 1 mM, recombinant systems; cited from earlier work
[1] = test system: synaptic transmission in the Schaffer collateral-commissural pathway; experiment: L-AP4 depression of synaptic transmission, field EPSP recordings in hippocampal CA1 slices; format: cell-based, mice; details: L-AP4 1 mM
Experimental: To investigate the possible functions of mGlu7 electrophysiological experiments are performed in the CA1 region of the hippocampus, a region rich in mGlu7. […] L-AP4 (1 mM) is therefore applied to wild-type and mGlu7^−/− mice. […] However, all three patterns are seen in both wild-type and mutant mice. On average there is no significance difference in the actions of L-AP4 between groups; the peak L-AP4 induced depressions for wild-type and mutant mice are 40±10% (n=15) and 33±10% (n=14), respectively (P>0.05). Furthermore, no statistically significant differences are seen in intrinsic or synaptic properties between wild-type and mutant mice. Also, paired-pulse facilitation is similar between both groups. Thus, the facilitation ratio obtained, using an interpulse interval of 50 ms, is 1.49±0.03 and 1.45±0.04 for wild-type (n=9) and mutant (n=9) mice, respectively (P>0.05).
Since certain members of the mGlu family have been implicated in the generation of LTP in area CA1, the ability of wild-type and mutant mice to support this form of synaptic plasticity is compared as follows. […]
There are no apparent differences in low frequency synaptic transmission between the two groups of mice. […] Statistical significance is determined using a repeated measures ANOVA test and unpaired Students t-tests. […]

[2] = test system: synaptic transmission in the Schaffer collateral-commissural pathway; details: 1 mM L-AP4, Schaffer collateral-commissural pathway, literature; cited from earlier work
[3] = test system: mice (mGluR7 -/-, +/-, +/+); experiment: Pentylenetetrazol (PTZ)-induced seizures in mGluR7 knockout, heterozygote and wild-type mice; format: in vivo; details: PTZ 40 mg/kg i.p.
Experimental: Intraperitoneal (i.p.) injection of a normally subconvulsive dose of PTZ (40 mg/kg) induced seizures in 9 out of 9 homozygous mGluR7 knockout mice (age 9 months) as shown in the Table below.
This sensitivity to a subconvulsive dose of PTZ is not yet evident at age 6 weeks but clearly evident at age 10 weeks in mGluR7 homozygous but not in heterozygous littermates as shown in the table below.

mice (mGluR7 -/-, +/-) = experiment: EEG recording with surface electrodes before and after PTZ injection; format: in vivo; details: PTZ 40 mg/kg
Experimental: In addition, two mGluR7−/− and two mGluR7+/− mice were equipped with surface electrodes to record EEGs before and after injection of 40 mg/kg PTZ.

mGlu7, sequence (P35400 35-915): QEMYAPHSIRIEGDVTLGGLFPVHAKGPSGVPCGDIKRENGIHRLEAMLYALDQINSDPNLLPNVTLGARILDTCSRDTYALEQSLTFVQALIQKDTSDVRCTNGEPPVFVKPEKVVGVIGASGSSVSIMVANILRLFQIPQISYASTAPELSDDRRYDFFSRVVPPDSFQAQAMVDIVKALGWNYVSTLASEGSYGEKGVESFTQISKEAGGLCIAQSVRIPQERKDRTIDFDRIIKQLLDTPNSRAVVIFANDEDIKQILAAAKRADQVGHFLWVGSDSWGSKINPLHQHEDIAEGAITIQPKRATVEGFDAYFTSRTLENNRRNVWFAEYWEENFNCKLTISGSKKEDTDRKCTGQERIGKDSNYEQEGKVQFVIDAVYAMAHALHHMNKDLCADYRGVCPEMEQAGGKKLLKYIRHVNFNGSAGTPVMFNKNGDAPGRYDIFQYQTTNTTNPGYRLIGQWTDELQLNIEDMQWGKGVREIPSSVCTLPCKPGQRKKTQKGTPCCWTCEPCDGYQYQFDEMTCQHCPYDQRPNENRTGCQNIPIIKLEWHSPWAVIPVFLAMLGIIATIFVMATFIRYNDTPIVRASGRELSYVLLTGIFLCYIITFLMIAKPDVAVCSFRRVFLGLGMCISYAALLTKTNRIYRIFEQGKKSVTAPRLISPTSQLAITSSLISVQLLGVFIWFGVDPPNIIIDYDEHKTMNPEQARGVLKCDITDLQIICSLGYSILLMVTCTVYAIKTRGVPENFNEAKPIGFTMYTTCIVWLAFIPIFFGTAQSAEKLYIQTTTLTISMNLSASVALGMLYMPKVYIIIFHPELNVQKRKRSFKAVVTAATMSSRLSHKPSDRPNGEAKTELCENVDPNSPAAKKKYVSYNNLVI

Structure (SMILES) | activation of mGlu7 (mGlu7) | peak L-AP4 induced depression ([1]; mutant (mGlu7 -/-) mice, n=14) [%] | peak L-AP4 induced depression ([1]; wild-type mice, n=15) [%] | effect on synaptic transmission [2] | mice with induced seizures ([3]; homozygous mGluR7 knockout mice, age 9 months) | Clonic activity ([3]; mGluR7 +/- heterozygote mice, per animal) | mice with clonic seizures ([3]; mGluR7+/- mice) | Clonic activity ([3]; mGluR7 -/- mice, age 6 weeks, per animal) | Clonic activity ([3]; mGluR7 -/- mice, age 10 weeks, per animal) | Clonic activity ([3]; mGluR7 -/- mice, per animal) | Exitus ([3]; mGluR7 -/- mice, per animal) | Tonic activity ([3]; mGluR7 -/- mice, per animal) | mice with induced seizures ([3]; wild type mice (mGluR7+/+)) | seizures following injection ([3]; wild type non-transgenic mice tested in parallel with the 6 and 10 week experiments) | EEG after PTZ injection (mice (mGluR7 -/-, +/-); homozygous mGluR7 knockout mice) | EEG after PTZ injection (mice (mGluR7 -/-, +/-); mGluR7+/- mice)
N[C@@H](CCP(=O)(O)O)C(=O)O [L-AP4, (S)-2-amino-4-phosphonobutanoate] | can activate mGlu7 | 33±10 | 40±10 | can depress synaptic transmission | – | – | – | – | – | – | – | – | – | – | – | –
C1CCc2nnnn2CC1 [PTZ, Pentylenetetrazol] | – | – | – | – | 9 out of 9 | 3′ | 1 out of 9 | 6′ | 2′ (2×) and 4′ (4×) | 2′ and 15′ | 4′ (2×) and 12′ and 11′ and 6′ | 3′ (2×) and 12′ and 2′ and 4′ and 6′ | None of 9 | no seizures | typical signals reminiscent of seizure activity | no such activity developed
